Target: Substance-P receptor (Homo sapiens, UniProt P25103)
Experiment: In vitro binding affinity against substance P (NK-1) receptor in human IM-9 cell using [125I]BH-SP
Type: cell-based

Sequence of Substance-P receptor (P25103 whole entry): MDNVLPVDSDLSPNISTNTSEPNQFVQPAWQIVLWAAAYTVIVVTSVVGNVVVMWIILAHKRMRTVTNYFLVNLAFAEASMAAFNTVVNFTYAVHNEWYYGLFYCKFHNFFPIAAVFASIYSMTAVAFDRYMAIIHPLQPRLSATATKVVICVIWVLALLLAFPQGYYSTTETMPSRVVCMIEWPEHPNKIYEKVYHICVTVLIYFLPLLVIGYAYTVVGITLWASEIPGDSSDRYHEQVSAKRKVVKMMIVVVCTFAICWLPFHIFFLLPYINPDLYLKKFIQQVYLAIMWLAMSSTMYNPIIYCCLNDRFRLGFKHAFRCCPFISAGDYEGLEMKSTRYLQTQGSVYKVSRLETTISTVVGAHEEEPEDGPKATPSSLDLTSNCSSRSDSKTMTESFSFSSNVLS

Row | Ki [nM] | Structure (SMILES)
1 | 2 | COc1ccccc1[C@@H]1CC[C@@]2(CCCN[C@H]2c2ccccc2)NC1
2 | > 10000 | COc1ccccc1[C@@H]1CC[C@@]2(CCCN[C@H]2c2ccccc2)N1

Source: ChEMBL document CHEMBL1127735, “Importance of parallel vectors and "hydrophobic collapse" of the aligned aromatic rings: discovery of a potent substance P antagonist” (J Med Chem, 1994)
